According to EP0115820A2, “Cephalosporin derivatives and process for their preparation” (Kaken Pharmaceutical Co., Ltd., priority 1983, dated 1984):
In brackets after ≈: the same amount, converted by molar mass. Like-named read-outs stand apart in the source and are kept apart here.

Columns and labels:
Experiment in all cases: Minimum inhibitory concentration (MIC)
Format in all cases: cell-based
[1] = tested on: Escherichia coli NIHJ JC-2
From the text: (§1) The cephalosporin derivatives of the present invention are novel substances, and the antimicrobial activities of their sodium salts are shown by the minimum inhibitory concentrations (MIC, µg/ml) in Table 1, as compared with a typical known cephalosporin compound.

[2] = tested on: Klebsiella pneumoniae No. 42
From the text: as §1

Proteus vulgaris GN-76 = tested on: Proteus vulgaris GN-76
From the text: as §1

[3] = tested on: Pseudomonas aeruginosa E-2
From the text: as §1

[4] = tested on: Pseudomonas aeruginosa K-13
From the text: as §1

[5] = tested on: Pseudomonas aeruginosa Y-1
From the text: as §1

[6] = tested on: Serratia marcescens No. 16-2
From the text: as §1

[7] = tested on: Staphylococcus aureus 209 P JC-1
From the text: as §1

[8] = NIHJJC2, Escherichia coli NIHJ JC-2, bacterial suspension 10^6 cells/ml, sodium salts tested, read-out: Minimum inhibitory concentration
[9] = Klebsiella pneumoniae No. 42, bacterial suspension 10^6 cells/ml, sodium salts tested, read-out: Minimum inhibitory concentration
[10] = GN76, Proteus vulgaris GN-76, bacterial suspension 10^6 cells/ml, sodium salts tested, read-out: Minimum inhibitory concentration
[11] = E2, Pseudomonas aeruginosa E-2, bacterial suspension 10^6 cells/ml, sodium salts tested, read-out: Minimum inhibitory concentration
[12] = K13, Pseudomonas aeruginosa K-13, bacterial suspension 10^6 cells/ml, sodium salts tested, read-out: Minimum inhibitory concentration
[13] = Y1, Pseudomonas aeruginosa Y-1, bacterial suspension 10^6 cells/ml, sodium salts tested, read-out: Minimum inhibitory concentration
[14] = NO.162, Serratia marcescens No. 16-2, bacterial suspension 10^6 cells/ml, sodium salts tested, read-out: Minimum inhibitory concentration
[15] = 209PJC1, Staphylococcus aureus 209 P JC-1, bacterial suspension 10^6 cells/ml, sodium salts tested, read-out: Minimum inhibitory concentration

SMILES	MIC [1, 8] [mg/L]	MIC [2, 9] [mg/L]	MIC (Proteus vulgaris GN-76; [10]) [mg/L]	MIC [3, 11] [mg/L]	MIC [4, 12] [mg/L]	MIC [5, 13] [mg/L]	MIC [6, 14] [mg/L]	MIC [7, 15] [mg/L]	MIC ([1]; Escherichia coli, NIHJJC2, read-out: Minimum inhibitory concentration) [mg/L]	MIC ([2]; Klebsiella pneumoniae, NO.42, read-out: Minimum inhibitory concentration) [mg/L]	MIC (Proteus vulgaris GN-76; Proteus vulgaris, GN76, read-out: Minimum inhibitory concentration) [mg/L]	MIC ([3]; Pseudomonas aeruginosa, E2, read-out: Minimum inhibitory concentration) [mg/L]	MIC ([4]; Pseudomonas aeruginosa, K13, read-out: Minimum inhibitory concentration) [mg/L]	MIC ([5]; Pseudomonas aeruginosa, Y1, read-out: Minimum inhibitory concentration) [mg/L]	MIC ([6]; Serratia marcescens, NO.162, read-out: Minimum inhibitory concentration) [mg/L]	MIC ([7]; Staphylococcus aureus, 209PJC1, read-out: Minimum inhibitory concentration) [mg/L]
CCOC(=O)Oc1ccc(C(=O)NC(C(=O)N[C@@H]2C(=O)N3C(C(=O)O)=C(CSc4nnnn4C)CS[C@H]23)c2csc(N)n2)cc1OC(=O)OCC (mixture of isomers) [Example 5, 7β-[DL-2-(3,4-diethoxycarbonyloxy-benzoylamino)-2-(2-aminothiazol-4-yl)acetamido]-3-(l-methyl-lH-tetrazol-5-yl-thiomethyl)-3-cephem-4-carboxylic acid]	0.78	0.2	6.25	0.39	0.2	0.1	50	0.39	–	–	–	–	–	–	–	–
CO[C@@]1(NC(=O)C(NC(=O)c2cc(OC(C)=O)c(OC(C)=O)c(OC(C)=O)c2)c2csc(N)n2)C(=O)N2C(C(=O)O)=C(CSc3nnnn3C)CS[C@@H]21 (mixture of isomers) [Example 11, 7α-methoxy-7β-[DL-2-(3,4,5-triacetoxy-benzoylamino)-2-(2-aminothiazol-4-yl)acetamido]-3-(1-methyl-lH-tetrazol-5-yl-thiomethyl)-3-cephem-4-carboxylic acid]	6.25	0.39	3.12	0.39	0.78	0.78	6.25	6.25	–	–	–	–	–	–	–	–
CO[C@@]1(NC(=O)C(NC(=O)c2ccc(OC(C)=O)c(OC(C)=O)c2)c2csc(N)n2)C(=O)N2C(C(=O)O)=C(COC(C)=O)CS[C@@H]21 (mixture of isomers) [Example 6, 7α-methoxy-7β-[DL-2-(3,4-diacetoxy-benzoylamino)-2-(2-aminothiazol-4-yl)acetamido]-cephalosporic acid]	3.12	0.39	12.5	0.78	1.56	0.78	6.25	1.56	–	–	–	–	–	–	–	–
CO[C@@]1(NC(=O)CSCC#N)C(=O)N2C(C(=O)O)=C(CSc3nnnn3C)CS[C@@H]21 [Cefmetazole, reference compound]	–	–	–	–	–	–	–	–	0.78 (≈ 1.65 µM)	1.56 (≈ 3.31 µM)	3.12 (≈ 6.62 µM)	3200 (≈ 6790 µM)	3200 (≈ 6790 µM)	3200 (≈ 6790 µM)	> 50	0.39 (≈ 0.827 µM)
CO[C@@]1(NC(=O)C(NC(=O)c2ccc(O)c(O)c2)c2csc(N)n2)C(=O)N2C(C(=O)O)=C(COC(C)=O)CS[C@@H]21 (mixture of isomers) [Example 9, 7α-methoxy-7β-[DL-2-(3,4-dihydroxy-benzoylamino)-2-(2-aminothiazol-4-yl)acetamidolcephalosporic acid]	12.5	0.39	3.12	0.39	0.78	0.39	3.12	1.56	–	–	–	–	–	–	–	–
CC(=O)Oc1cccc(C(=O)NC(C(=O)N[C@@H]2C(=O)N3C(C(=O)O)=C(CSc4nnnn4C)CS[C@H]23)c2csc(N)n2)c1OC(C)=O (mixture of isomers) [Example 4, 7β-[DL-2-(2,3-diacetoxybenzoylamino)-2-(2-aminothiazol-4-yl)acetamidol-3-(l-methyl-lH-tetrazol-5-yl-thiomethyl)-3-cephem-4-carboxylic acid]	3.12	1.56	3.12	1.56	0.39	0.78	200	1.56	–	–	–	–	–	–	–	–
CCOC(=O)Oc1ccc(C(=O)NC(C(=O)N[C@]2(OC)C(=O)N3C(C(=O)O)=C(COC(C)=O)CS[C@@H]32)c2csc(N)n2)cc1OC(=O)OCC (mixture of isomers) [Example 13, 7α -methoxy-7β-[DL-2-(3,4-diethoxy-carbonyloxybenzoylamino)-2-(2-aminothiazol-4-yl)-acetamido]cephalosporic acid]	12.5	0.39	6.25	0.78	1.56	0.78	3.12	1.56	–	–	–	–	–	–	–	–

Now from value to compound, other results behind:

MIC [1, 8] [mg/L]	MIC [2, 9] [mg/L]	MIC (Proteus vulgaris GN-76; [10]) [mg/L]	MIC [3, 11] [mg/L]	MIC [4, 12] [mg/L]	MIC [5, 13] [mg/L]	MIC [6, 14] [mg/L]	MIC [7, 15] [mg/L]	SMILES	MIC ([1]; Escherichia coli, NIHJJC2, read-out: Minimum inhibitory concentration) [mg/L]	MIC ([2]; Klebsiella pneumoniae, NO.42, read-out: Minimum inhibitory concentration) [mg/L]	MIC (Proteus vulgaris GN-76; Proteus vulgaris, GN76, read-out: Minimum inhibitory concentration) [mg/L]	MIC ([3]; Pseudomonas aeruginosa, E2, read-out: Minimum inhibitory concentration) [mg/L]	MIC ([4]; Pseudomonas aeruginosa, K13, read-out: Minimum inhibitory concentration) [mg/L]	MIC ([5]; Pseudomonas aeruginosa, Y1, read-out: Minimum inhibitory concentration) [mg/L]	MIC ([6]; Serratia marcescens, NO.162, read-out: Minimum inhibitory concentration) [mg/L]	MIC ([7]; Staphylococcus aureus, 209PJC1, read-out: Minimum inhibitory concentration) [mg/L]
3.12	6.25	25	25	25	50	> 200	0.39	CC(=O)OCC1=C(C(=O)O)N2C(=O)[C@@H](NC(=O)C(NC(=O)c3ccc(O)cc3)c3csc(N)n3)[C@H]2SC1 (mixture of isomers) [Example 24, 7β-[DL-2-(4-hydroxybenzoylamino)-2-(2-aminothiazol-4-yl)acetamido]cephalosporic acid]	–	–	–	–	–	–	–	–
0.39	0.05	0.39	0.2	0.2	0.05	6.25	0.39	CCOC(=O)Oc1ccc(C(=O)NC(C(=O)N[C@@H]2C(=O)N3C(C(=O)O)=C(COC(C)=O)CS[C@H]23)c2csc(N)n2)cc1OC(=O)OCC (mixture of isomers) [Example 19, 7β-[DL-2-(3,4-diethoxycarbonyloxy-benzoylamino)-2-(2-aminothiazol-4-yl)acetamido]-cephalosporic acid]	–	–	–	–	–	–	–	–
3.12	3.12	6.25	50	25	100	> 200	0.39	CC(=O)OCC1=C(C(=O)O)N2C(=O)[C@@H](NC(=O)C(NC(=O)c3ccccc3O)c3csc(N)n3)[C@H]2SC1 (mixture of isomers) [Example 22, 7β-[DL-2-(2-hydroxybenzoylamino)-2-(2-aminothiazol-4-yl)acetamido]cephalosporic acid]	–	–	–	–	–	–	–	–
